Data: patent US6509371B1, “Compositions containing Bergamottin for increasing the oral bioavailability of pharmaceutical agents” (Warner-Lambert Company, priority 1997, dated 2003)
Read-outs that look alike come from different tables or passages of the source.

How the values were obtained:
[1] = biological target: T1, P450 3A4 (Homo sapiens, UniProt P08684); details: in vivo; cited from earlier work
Target sequence in this assay (P08684 whole entry): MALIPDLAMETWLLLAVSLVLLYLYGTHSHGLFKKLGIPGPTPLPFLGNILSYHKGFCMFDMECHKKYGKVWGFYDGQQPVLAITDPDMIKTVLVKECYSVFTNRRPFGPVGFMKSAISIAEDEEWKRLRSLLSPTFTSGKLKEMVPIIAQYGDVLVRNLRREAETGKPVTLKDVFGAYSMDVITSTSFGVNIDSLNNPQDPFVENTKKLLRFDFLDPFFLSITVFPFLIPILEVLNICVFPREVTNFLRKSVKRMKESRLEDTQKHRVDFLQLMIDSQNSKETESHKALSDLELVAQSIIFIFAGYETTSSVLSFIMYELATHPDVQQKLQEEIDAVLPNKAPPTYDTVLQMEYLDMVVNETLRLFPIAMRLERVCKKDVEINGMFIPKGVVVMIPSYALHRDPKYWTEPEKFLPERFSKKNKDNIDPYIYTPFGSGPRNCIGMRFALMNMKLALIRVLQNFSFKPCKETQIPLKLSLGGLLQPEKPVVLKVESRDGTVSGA

[2] = cited from earlier work
[3] = biological target: T1, P450 3A4; details: other potent inactivators of P450 3A4, literature; cited from earlier work
Target sequence in this assay (P08684 whole entry): as above

[4] = biological target: T1, P450 3A4; assay: BG-mediated inactivation of P450 3A4 in a reconstituted system, testosterone 6β-hydroxylation activity; details: reconstituted system
Target sequence in this assay (P08684 with tags, fused parts or gaps): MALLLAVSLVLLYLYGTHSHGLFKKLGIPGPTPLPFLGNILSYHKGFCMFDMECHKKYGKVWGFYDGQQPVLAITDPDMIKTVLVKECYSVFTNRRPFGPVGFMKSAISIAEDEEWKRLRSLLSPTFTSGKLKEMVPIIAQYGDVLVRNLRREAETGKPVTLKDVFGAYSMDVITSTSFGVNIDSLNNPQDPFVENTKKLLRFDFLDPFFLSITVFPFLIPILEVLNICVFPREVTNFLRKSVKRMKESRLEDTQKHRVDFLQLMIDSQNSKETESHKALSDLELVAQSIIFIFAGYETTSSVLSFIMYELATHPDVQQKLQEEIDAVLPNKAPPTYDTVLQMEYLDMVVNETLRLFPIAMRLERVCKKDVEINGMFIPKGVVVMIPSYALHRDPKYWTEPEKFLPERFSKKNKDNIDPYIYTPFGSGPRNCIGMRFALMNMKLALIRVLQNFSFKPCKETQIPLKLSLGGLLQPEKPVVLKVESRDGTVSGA

Structure (SMILES) | Fraction Metabolized [1] | Oral Bioavailability ([2]; oral) | other results
Cc1nnc2n1-c1ccc(Cl)cc1C(c1ccccc1Cl)=NC2 [Triazolam] | >90% | 45-70% | 
NC(=O)N1c2ccccc2C=Cc2ccccc21 [Carbamazepine] | >90% | >70% | 
O=c1[nH]c2ccccc2n1C1CCN(CCCC(c2ccc(F)cc2)c2ccc(F)cc2)CC1 [Pimozide] | >90% |  | 
C#C[C@]1(O)C=C[C@H]2[C@@H]3CCC4=CC(=O)CC[C@@H]4[C@H]3CC[C@@]21CC [gestodene] |  |  | Kinactivation [3]: 0.4 min⁻¹
CC(=CCOc1c2ccoc2cc2oc(=O)ccc12)CCC(O)C(C)(C)O (stereo not drawn) [6′,7′-dihydroxybergamottin] |  |  | Kinactivation (maximal rate constant of inactivation) [4]: 0.16 min⁻¹
Cc1ncc2n1-c1ccc(Cl)cc1C(c1ccccc1F)=NC2 [Midazolam] | >90% |  | Oral Bioavailability ([2]; in vivo, po): 40-50%
CN1C[C@H](C(=O)N[C@]2(C)O[C@@]3(O)[C@@H]4CCCN4C(=O)[C@H](Cc4ccccc4)N3C2=O)C=C2c3cccc4[nH]cc(c34)C[C@H]21 [Ergotamine] | >90% | <1% | 
CCOC(=O)C1=C(C)NC(C)=C(C(=O)OC)C1c1cccc(Cl)c1Cl (stereo not drawn) [Felodipine] |  | 15-25% | 
CC(C)(C)NC(=O)[C@@H]1C[C@@H]2CCCC[C@@H]2CN1C[C@@H](O)[C@H](Cc1ccccc1)NC(=O)[C@H](CC(N)=O)NC(=O)c1ccc2ccccc2n1 [Saquinavir] | >90% |  | 
COC(=O)C1=C(C)NC(C)=C(C(=O)OCC(C)C)C1c1ccccc1[N+](=O)[O-] (stereo not drawn) [Nisoldipine] |  | ˜5% | 
CO[C@H]1/C=C/O[C@@]2(C)Oc3c(C)c(O)c4c(c3C2=O)C2=NC3(CCN(CC(C)C)CC3)NC2=C(NC(=O)/C(C)=C\C=C\[C@H](C)[C@H](O)[C@@H](C)[C@@H](O)[C@@H](C)[C@H](OC(C)=O)[C@@H]1C)C4=O [Rifabutin] | >90% | 20-12% | 
CC(C)n1c(/C=C/C(O)CC(O)CC(=O)O)c(-c2ccc(F)cc2)c2ccccc21 (stereo not drawn) [Fluvastatin] | ˜90% | 50-9% | 
C=CC[C@@H]1/C=C(\C)C[C@H](C)C[C@H](OC)[C@H]2O[C@@](O)(C(=O)C(=O)N3CCCC[C@H]3C(=O)O[C@H](/C(C)=C/[C@@H]3CC[C@@H](O)[C@H](OC)C3)[C@H](C)[C@@H](O)CC1=O)[C@H](C)C[C@@H]2OC [Tacrolimus (FK506), Tacrolimus] | >90% | 20-15% | 
CC[C@H](C)C(=O)O[C@H]1C[C@H](O)C=C2C=C[C@H](C)[C@H](CC[C@@H](O)C[C@@H](O)CC(=O)O)[C@H]21 [Pravastatin] | >50% | 25-10% | 
CC[C@H]1OC(=O)[C@H](C)[C@@H](O[C@H]2C[C@@](C)(OC)[C@@H](O)[C@H](C)O2)[C@H](C)[C@@H](O[C@@H]2O[C@H](C)C[C@H](N(C)C)[C@H]2O)[C@](C)(OC)C[C@@H](C)C(=O)[C@H](C)[C@@H](O)[C@]1(C)O [Clarithromycin] | >70% | 50-55% | 
COC(=O)C1=C(C)NC(C)=C(C(=O)OCCN(C)Cc2ccccc2)C1c1cccc([N+](=O)[O-])c1 (stereo not drawn) [Nicardipine] | >90% | 20-30% | 
CN[C@H]1CC[C@@H](c2ccc(Cl)c(Cl)c2)c2ccccc21 [Sertraline] | >90% |  | 
COc1ccc(CCN2CCC(Nc3nc4ccccc4n3Cc3ccc(F)cc3)CC2)cc1 [Astemizole] | >90% | Low | 
C[C@]12CC[C@H]3[C@@H](CCC4=CC(=O)CC[C@@]43C)[C@@H]1CC[C@@H]2O [Testosterone] | >90% | Poor | 
CC[C@]1(O)C[C@@H]2CN(CCc3c([nH]c4ccccc34)[C@@](C(=O)OC)(c3cc4c(cc3OC)N(C)[C@H]3[C@@](O)(C(=O)OC)[C@H](OC(C)=O)[C@]5(CC)C=CCN6CC[C@]43[C@@H]65)C2)C1 [Vinblastine] | >50% | Poor | 
CCOC(=O)C1=C(C)NC(C)=C(C(=O)OC)C1c1cccc([N+](=O)[O-])c1 (stereo not drawn) [Nitrendipine] | >90% | 16-6% | 
COc1cc([C@@H]2c3cc4c(cc3[C@@H](O[C@@H]3O[C@@H]5CO[C@@H](C)O[C@H]5[C@H](O)[C@H]3O)[C@H]3COC(=O)[C@H]23)OCO4)cc(OC)c1O [Etoposide] |  | 35-70% | 
CC[C@H]1OC(=O)[C@H](C)[C@@H](O[C@H]2C[C@@](C)(OC)[C@@H](O)[C@H](C)O2)[C@H](C)[C@@H](O[C@@H]2O[C@H](C)C[C@H](N(C)C)[C@H]2O)[C@](C)(O)C[C@@H](C)C(=O)[C@H](C)[C@@H](O)[C@]1(C)O [Erythromycin] |  | 30-65% | 
COCCOC(=O)C1=C(C)NC(C)=C(C(=O)OC(C)C)C1c1cccc([N+](=O)[O-])c1 (stereo not drawn) [Nimodipine] |  | 15-10% | 
CC[C@]1(O)C[C@H]2CN(CCc3c([nH]c4ccccc34)[C@@](C(=O)OC)(c3cc4c(cc3OC)N(C=O)[C@H]3[C@@](O)(C(=O)OC)[C@H](OC(C)=O)[C@]5(CC)C=CCN6CC[C@]43[C@@H]65)C2)C1 [Vincristine] | >50% | Poor | 
CCC(C)n1ncn(-c2ccc(N3CCN(c4ccc(OCC5COC(Cn6cncn6)(c6ccc(Cl)cc6Cl)O5)cc4)CC3)cc2)c1=O (stereo not drawn) [Itraconazole] | >90% | 44-55% | 
COC(=O)C1=C(C)NC(C)=C(C(=O)OC(C)C)C1c1cccc2nonc12 (stereo not drawn) [Isradipine] | >90% | 15-25% | 
CO[C@H]1C[C@@H]2CC[C@@H](C)[C@@](O)(O2)C(=O)C(=O)N2CCCC[C@H]2C(=O)O[C@H]([C@H](C)C[C@@H]2CC[C@@H](O)[C@H](OC)C2)CC(=O)[C@H](C)/C=C(\C)[C@@H](O)[C@@H](OC)C(=O)[C@H](C)C[C@H](C)/C=C/C=C/C=C/1C [Sirolimus(rapamycin), Sirolimus] | >90% | 20-10% | 
CC[C@H]1OC(=O)[C@H](C)[C@@H](O[C@H]2C[C@@](C)(OC)[C@@H](O)[C@H](C)O2)[C@H](C)[C@@H](O[C@@H]2O[C@H](C)C[C@H](N(C)C)[C@H]2O)[C@](C)(O)C[C@@H](C)CN(C)[C@H](C)[C@@H](O)[C@]1(C)O [Azithromycin] |  | 35-45% | 
COc1cc(N)c(Cl)cc1C(=O)NC1CCN(CCCOc2ccc(F)cc2)CC1OC (stereo not drawn) [Cisapride] |  | 35-40% | 
